This note sets out measurements from patent US11484557B2, “Human-derived Lactobacillus fermentum MG4231 or Lactobacillus fermentum MG4244 strain having anti-obesity activity, and composition comprising same” (MEDIOGEN CO., LTD., priority 2018, dated 2022).

In the assay the test system is 3T3-L1 preadipocytes. Kind of assay: Inhibition of preadipocyte differentiation, Oil Red O lipid accumulation. It counts as cell-based. To be noted: positive control, 100 μM baicalin. The protocol: In order to select a strain having excellent obesity prevention and treatment effects among the strains obtained in the Example 1, an experiment was conducted to identify the ability thereof to inhibit differentiation of preadipocytes into adipocytes. To induce the differentiation of 3T3-L1 preadipocytes, the preadipocytes were dispensed into each 96-well plate at 1.25×10^5 cells/well. After 2 days, the medium was changed so that the cells were completely fused on the 4th day. MDI (0.5 mM 3-isobutyl-1-methylxanthine), 1 μM dexamethasone and 1 μg/mL of insulin solution added to 10% FBS DMEM medium. Subsequently, in the experimental group, the culture supernatant of the strain obtained in Example 1 was added to the medium at a concentration of 1,000 μg/mL. […] Adipocyte differentiation was completed after 6 days, and the amount of lipid accumulated in the cell was measured using Oil Red 0 (Sigma, USA), which reacts specifically with the lipid drop generated in the cell. […] For quantification, distilled water was removed, isopropyl alcohol was added to a completely dry well, and then, absorbance was measured at 520 nm. Then, a degree of inhibition of adipocyte differentiation ability was analyzed by comparing the produced lipid drop content with that of the MDI treatment group based on the measured absorbance.

Each structure is given as a SMILES string.

The molecule `O=C(O)[C@H]1O[C@@H](Oc2cc3oc(-c4ccccc4)cc(=O)c3c(O)c2O)[C@H](O)[C@@H](O)[C@@H]1O` [baicalin] showed a relative lipid content of 81.40%.
